Measured values published in paper PMC10573892, “β-Lactam TRPM8 Antagonists Derived from Phe-Phenylalaninol Conjugates: Structure–Activity Relationships and Antiallodynic Activity” (International Journal of Molecular Sciences, 2023).

Biological target: T1, rat TRPM8 channel (rTRPM8) (Rattus norvegicus, UniProt Q8R455)
T1 construct: expressed in transfected cells
Experiment: Ca2+ microfluorimetry, menthol-induced Ca2+ entry in HEK293 cells overexpressing rTRPM8
Assay type: cell-based
Details: for IC50: rTRPM8, HEK293, activation by 100 µM menthol
Description: The diastereomeric 1,4,4-trisubstitutes β-lactams were evaluated as modulators of the TRPM8 channel by calcium microfluorimetry assays. These assays use a Human Embryonic Kidney 293 (HEK293) cell line that stably overexpressed rat TRPM8 channel (rTRPM8). […] Three separated experiments in triplicate were used.
The initial biological evaluation of this series of 1,3,4,4-tetrasubstituted β-lactams was performed by calcium microfluorimetry assays using the indicated HEK293 cell line overexpressing rTRPM8 channels.
Calcium fluorometry, Patch-Clamp assays and in vivo experiments were performed using the methodology previously described for TRPM8 [35] or TRPM3 [61]. In the Patch -Clamp experiments, the intracellular pipette solution contained (in mM) 140 KCl, 5 EGTA, and 10 mM HEPES, adjusted to pH 7.2 with KOH, and the extracellular solution contained (in mM) 140 NaCl, 2 CaCl2, 1 MgCl2, 10 D-glucose and 10 HEPES, adjusted to pH 7.4 with NaOH. Selectivity against TRPV1, TRPV3, TRPA1 and ASIC3 was subcontracted to Eurofins-CEREP or Eurofins-PANLABS (see ref. [35] for more details).

T1 sequence (Q8R455 whole entry): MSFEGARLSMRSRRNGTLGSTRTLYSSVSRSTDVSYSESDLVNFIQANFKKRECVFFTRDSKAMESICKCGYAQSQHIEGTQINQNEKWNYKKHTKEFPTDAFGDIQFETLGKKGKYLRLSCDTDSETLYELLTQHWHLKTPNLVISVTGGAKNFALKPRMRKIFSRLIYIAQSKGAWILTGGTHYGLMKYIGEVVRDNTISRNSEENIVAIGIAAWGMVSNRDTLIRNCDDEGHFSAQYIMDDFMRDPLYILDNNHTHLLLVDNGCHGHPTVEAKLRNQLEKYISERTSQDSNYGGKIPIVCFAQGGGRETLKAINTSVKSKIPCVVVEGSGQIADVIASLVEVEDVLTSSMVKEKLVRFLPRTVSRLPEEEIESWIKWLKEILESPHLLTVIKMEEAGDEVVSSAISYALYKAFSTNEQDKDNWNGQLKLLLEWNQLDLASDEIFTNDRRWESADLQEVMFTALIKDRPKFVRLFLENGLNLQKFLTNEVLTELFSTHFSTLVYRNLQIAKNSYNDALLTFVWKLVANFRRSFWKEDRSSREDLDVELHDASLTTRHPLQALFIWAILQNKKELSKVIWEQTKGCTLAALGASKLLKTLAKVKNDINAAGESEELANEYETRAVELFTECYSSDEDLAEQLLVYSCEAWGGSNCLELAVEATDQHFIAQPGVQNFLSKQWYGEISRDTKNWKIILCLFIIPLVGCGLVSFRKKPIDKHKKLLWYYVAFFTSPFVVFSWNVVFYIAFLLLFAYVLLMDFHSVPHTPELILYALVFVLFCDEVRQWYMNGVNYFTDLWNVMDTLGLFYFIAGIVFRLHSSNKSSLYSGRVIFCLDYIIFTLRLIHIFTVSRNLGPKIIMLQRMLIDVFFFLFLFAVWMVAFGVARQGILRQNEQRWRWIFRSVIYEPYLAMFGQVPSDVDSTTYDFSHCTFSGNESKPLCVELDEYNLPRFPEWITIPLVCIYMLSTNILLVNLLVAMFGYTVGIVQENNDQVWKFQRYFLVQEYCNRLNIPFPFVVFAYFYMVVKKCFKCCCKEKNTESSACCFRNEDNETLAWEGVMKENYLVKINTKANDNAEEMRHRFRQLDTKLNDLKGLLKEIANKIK

IC50 (Table 1) | IC50 (Table 3) | Structure (SMILES) | also measured
0.15 µM |  | COC(=O)C1(Cc2ccccc2)CC(=O)N1C[C@H](Cc1ccccc1)N(Cc1ccccc1)Cc1ccccc1 (stereo partly drawn) [2a,b] | 
0.71 ± 1.2 µM |  | CC(C)CNC(=O)C1(Cc2ccccc2)CC(=O)N1C[C@H](Cc1ccccc1)N(Cc1ccccc1)Cc1ccccc1 (stereo partly drawn) [4a,b] | 
0.71 ± 1.27 µM |  | O=C1CC(Cc2ccccc2)(C(=O)NCc2ccccc2)N1C[C@H](Cc1ccccc1)N(Cc1ccccc1)Cc1ccccc1 (stereo partly drawn) [5a,b] | 
 |  | O=C1CC(Cc2ccccc2)(C(=O)NCc2ccc(Cl)c(Cl)c2)N1C[C@H](Cc1ccccc1)N(Cc1ccccc1)Cc1ccccc1 (stereo partly drawn) [6a,b] | antagonist activity (relative to benzylamide 5a,b): notable reduction in antagonist activity
11.6 ± 1.3 µM |  | O=C1CC(Cc2ccccc2)(C(=O)Nc2cccnc2)N1C[C@H](Cc1ccccc1)N(Cc1ccccc1)Cc1ccccc1 (stereo partly drawn) [7a,b] | 
1.99 ± 1.26 µM |  | O=C1CC(Cc2ccccc2)(C(=O)NCc2ccccn2)N1C[C@H](Cc1ccccc1)N(Cc1ccccc1)Cc1ccccc1 (stereo partly drawn) [8a,b] | 
10.7 ± 1.38 µM |  | O=C1CC(Cc2ccccc2)(C(=O)NCc2cccnc2)N1C[C@H](Cc1ccccc1)N(Cc1ccccc1)Cc1ccccc1 (stereo partly drawn) [9a,b] | 
 |  | O=C1C[C@@]2(Cc3ccccc3)C(=O)N[C@@H](Cc3ccccc3)CN12 [Compound 11a, (3S,6S)-3,6-dibenzyl-1,4-diazabicyclo[4.2.0]octane-5,8-dione] | inhibition at 50 µM (HEK293, at 50 μM): < 50%
 | 2.19 ± 1.36 µM | CC(C)CNC(=O)[C@]1(Cc2ccccc2)[C@H](C)C(=O)N1C[C@H](Cc1ccccc1)NCc1cccc(-c2ccccc2)c1 [Compound 42, 4S-Benzyl-4-[N-(iso-butyl)-carbamoyl]-3S-methyl-1-[(2′S-(3′′-phenylbencil)amino-3′-phenyl)prop-1′-yl]-2-oxoazetidine] | 
 | 4.03 ± 1.35 µM | CC(C)CNC(=O)[C@]1(Cc2ccccc2)[C@H](C)C(=O)N1C[C@H](Cc1ccccc1)NCc1cccc(F)c1 [Compound 43, 4S-Benzyl-4-[N-(iso-butyl)carbamoyl]-3S-methyl-1-[(2′S-(3′′-fluorobenzyl)amino-3′-phenyl)prop-1′-yl]-2-oxoazetidine] | 
 | 3.27 ± 1.31 µM | CC(C)CNC(=O)[C@]1(Cc2ccccc2)[C@H](C)C(=O)N1C[C@H](Cc1ccccc1)NCc1cccc(Br)c1 [Compound 44, 4S-Benzyl-4-[N-(iso-butyl)carbamoyl]-3S-methyl-1-[(2′S-(3′′-bromobenzyl)amino-3′-phenyl)prop-1′-yl]-2-oxoazetidine] | 
 | 3.56 ± 1.4 µM | CC(C)CNC(=O)[C@]1(Cc2ccccc2)[C@H](C)C(=O)N1C[C@H](Cc1ccccc1)NCc1ccc2ccccc2c1 [Compound 45, 4S-Benzyl-4-[N-(iso-butyl)-carbamoyl]-3S-methyl-1-[(2′S-(2′′-naphtylmethyl)amino-3′-phenyl)prop-1′-yl]-2-oxoazetidine] | 

Structure (SMILES) | IC50 (Table 1) | IC50 (Table 3) | also measured
C[C@@H]1C(=O)N(C[C@H](Cc2ccccc2)NCc2ccccc2)[C@]1(Cc1ccccc1)C(=O)OC(C)(C)C [Compound 37, 4S-Benzyl-4-(terc-butoxy)carbonyl-3S-methyl-1-[(2’S-N-benzylamino-3’-phenyl)prop-1′-yl]-2-oxoazetidine] |  | 3.06 ± 1.25 µM | 
C[C@@H]1C(=O)N(C[C@H](Cc2ccccc2)NCc2cccc(-c3ccccc3)c2)[C@]1(Cc1ccccc1)C(=O)OC(C)(C)C [Compound 40, 4S-Benzyl-4-(terc-butoxy)carbonyl-3S-methyl-1-[(2’S-N-(3′′-biphenyl)methylamino-3’-phenyl)prop-1′-yl]-2-oxoazetidine] |  | 6.36 ± 1.41 µM | 
C[C@@H]1C(=O)N(C[C@H](Cc2ccccc2)NCc2ccc(-c3ccccc3)cc2)[C@]1(Cc1ccccc1)C(=O)OC(C)(C)C [Compound 41, 4S-Benzyl-4-terc-butoxycarbonyl-3S-methyl-1-[(2’S-N-(4′′-biphenyl)methylamino-3’-phenyl)prop-1′-yl]-2-oxoazetidine] |  | 9.26 ± 1.41 µM | 
